Source: the NIST ThermoML archive (doi:10.1021/je200682t)

Assay: relative permittivity at zero frequency (dimensionless)
Conditions: 101.33 kPa, Liquid, Parallel plate capacitor

O=C1CCC1 [cyclobutanone]
Conditions	relative permittivity at zero frequency
243.15 K	17.96
245.65 K	17.81
248.15 K	17.66
250.65 K	17.51
253.15 K	17.37
255.65 K	17.22
258.15 K	17.07
260.65 K	16.93
263.15 K	16.79
265.65 K	16.65
268.15 K	16.51
270.65 K	16.37
273.15 K	16.24
275.65 K	16.11
278.15 K	15.98
280.65 K	15.85
283.15 K	15.72
285.65 K	15.58
288.15 K	15.46
290.65 K	15.33
293.15 K	15.2
295.65 K	15.08
298.15 K	14.96
300.65 K	14.84
303.15 K	14.72
305.65 K	14.6
308.15 K	14.48
310.65 K	14.37
313.15 K	14.25

O=C1CCCCCC1 [cycloheptanone]
Conditions	relative permittivity at zero frequency
245.65 K	15.35
248.15 K	15.22
250.65 K	15.09
253.15 K	14.97
255.65 K	14.85
258.15 K	14.72
260.65 K	14.57
263.15 K	14.47
265.65 K	14.36
268.15 K	14.25
270.65 K	14.14
273.15 K	14.03
275.65 K	13.91
278.15 K	13.8
280.65 K	13.69
283.15 K	13.58
285.65 K	13.46
288.15 K	13.35
290.65 K	13.25
293.15 K	13.14
295.65 K	13.03
298.15 K	12.92
300.65 K	12.82
303.15 K	12.72
305.65 K	12.62
308.15 K	12.51
310.65 K	12.41
313.15 K	12.32

O=C1CCCCC1 [cyclohexanone]
Conditions	relative permittivity at zero frequency
243.15 K	19.75
245.65 K	19.54
248.15 K	19.34
250.65 K	19.13
253.15 K	18.93
255.65 K	18.73
258.15 K	18.54
260.65 K	18.34
263.15 K	18.15
265.65 K	17.96
268.15 K	17.78
270.65 K	17.6
273.15 K	17.42
275.65 K	17.24
278.15 K	17.07
280.65 K	16.9
283.15 K	16.73
285.65 K	16.56
288.15 K	16.4
290.65 K	16.24
293.15 K	16.08
295.65 K	15.92
298.15 K	15.77
300.65 K	15.62
303.15 K	15.46
305.65 K	15.32
308.15 K	15.17
310.65 K	15.03
313.15 K	14.89

O=C1CCCCCCC1 [cyclooctanone]
Conditions	relative permittivity at zero frequency
298.15 K	14.54
303.15 K	14.22
305.65 K	14.05
308.15 K	13.89
310.65 K	13.74
313.15 K	13.57
315.65 K	13.42
318.15 K	13.27
320.65 K	13.14
323.15 K	12.99
325.65 K	12.85
328.15 K	12.71
330.65 K	12.58
333.15 K	12.44
335.65 K	12.3
338.15 K	12.17
340.65 K	12.04
343.15 K	11.9

O=C1CCCC1 [cyclopentanone]
Conditions	relative permittivity at zero frequency
243.15 K	15.66
245.65 K	15.56
248.15 K	15.46
250.65 K	15.36
253.15 K	15.26
255.65 K	15.15
258.15 K	15.05
260.65 K	14.95
263.15 K	14.85
265.65 K	14.75
268.15 K	14.65
270.65 K	14.55
273.15 K	14.45
275.65 K	14.35
278.15 K	14.25
280.65 K	14.15
283.15 K	14.06
285.65 K	13.96
288.15 K	13.86
290.65 K	13.77
293.15 K	13.67
295.65 K	13.58
298.15 K	13.49
300.65 K	13.39
303.15 K	13.3
305.65 K	13.22
308.15 K	13.13
310.65 K	13.04
313.15 K	12.95
